Measurements taken from US11952431B2, “Neutrophil-binding peptides” (YISSUM RESEARCH DEVELOPMENT COMPANY OF THE HEBREW …, priority 2020, dated 2024).
pKd: −log10 of the molar value. Entries after “also recorded” stand apart in the source; their conditions may differ.

Legend:
[1] = system: neutrophils; experiment: Confocal imaging of 16-LQI with Gr-1 neutrophils; type: cell-based, mouse
Experimental: FIGS. 2A-I: (2A) Schematic representation of the structure of a tetrameric LQI. […] (2E) Representative histogram showing the percent binding of 16-LQI to each WBC population in healthy Balb/C mice following ex vivo incubation and staining with Streptavidin-Cy3, as analyzed by flow cytometry. *=gating based on light scatter. […] Ly6G^+ population represent HDN and Ly6G− cells are other WBCs. […] (2I) Representative image of confocal microscopy with Gr-1 neutrophils (green) bound by the 16-LQI (red).

[2] = system: circulating CD177+ cells (neutrophils); experiment: Flow cytometry of WBC stained for CD177 and 16-LQI; type: binding, mouse
Source text: (§1) (21C-D) Representative dot plots of isolated WBC stained with (21C) Ly6G and CD177 or (21D) CD177 and 16-LQI. […] (21F) Representative STORM imaging of a single neutrophil with staining of CD177 (green) and 16-LQI (red), overlay with brightfield (left) or DAPI staining of nucleus (right). (21G) Quantification of CD177 and 16-LQI interaction for image depicted in (E) using the ImageJ Interaction Factor plugin.

[3] = system: neutrophils; experiment: Doublet analysis of flow cytometry data for crosslinking of neutrophils; type: cell-based, mouse
Experimental: In order to rule out that there is a crosslinking between neutrophils when incubating with the LQI tetramer-SA-complex, flow cytometry data was analyzed to assess if there was an increase in doublet cells after incubation with the LQI tetramer-SA-complex. It is possible to examine the light scatter plots and compare the height signal of a voltage pulse (SSC-H, FSC-H) to the area values (SSC-A, FSC-A; A=Height*Width). If a doublet passes the laser beam in the flow cytometer, the width of the pulse signal (corresponds to time) will increase and therefore the value for the area (SSC-A and FSC-A) will increase. By comparing e.g. SSC-H and SSC-A it is possible to identify doublets because they are outliers in the blot.

[4] = biological target: T1, CD177 (Mus musculus, UniProt Q8R2S8); experiment: STORM imaging of CD177 and 16-LQI on a neutrophil; type: binding; design: endogenous in cells; host or cells: murine neutrophils
T1 sequence (Q8R2S8 22-817): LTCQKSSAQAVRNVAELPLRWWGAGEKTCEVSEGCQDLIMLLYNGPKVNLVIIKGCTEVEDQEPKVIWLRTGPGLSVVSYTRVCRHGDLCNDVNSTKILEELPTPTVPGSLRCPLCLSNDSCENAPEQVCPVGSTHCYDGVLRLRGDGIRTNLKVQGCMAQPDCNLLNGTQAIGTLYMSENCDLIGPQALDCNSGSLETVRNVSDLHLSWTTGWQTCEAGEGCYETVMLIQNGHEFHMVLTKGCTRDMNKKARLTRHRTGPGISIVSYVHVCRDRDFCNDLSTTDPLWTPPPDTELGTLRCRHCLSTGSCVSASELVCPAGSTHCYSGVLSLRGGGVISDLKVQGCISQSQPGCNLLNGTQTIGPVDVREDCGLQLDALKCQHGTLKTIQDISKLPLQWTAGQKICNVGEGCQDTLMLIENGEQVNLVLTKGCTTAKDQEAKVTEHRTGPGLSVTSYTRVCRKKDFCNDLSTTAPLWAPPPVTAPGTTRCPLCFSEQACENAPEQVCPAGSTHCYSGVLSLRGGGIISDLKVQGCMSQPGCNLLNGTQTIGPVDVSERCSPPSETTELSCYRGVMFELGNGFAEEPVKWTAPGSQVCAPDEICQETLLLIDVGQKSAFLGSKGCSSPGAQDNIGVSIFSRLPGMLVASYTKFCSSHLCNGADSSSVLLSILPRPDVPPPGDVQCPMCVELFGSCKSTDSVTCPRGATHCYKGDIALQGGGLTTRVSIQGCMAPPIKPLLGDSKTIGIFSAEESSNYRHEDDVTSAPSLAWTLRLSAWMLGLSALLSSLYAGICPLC
Source text: as §1

[5] = system: neutrophils; experiment: LQI tetramer alone or 16-LQI binding to WBCs, flow cytometry; design: species or system mouse; details: WBCs from 4T1-tumor bearing mice, 30 min at 4° C.
Experimental: (§2) After washing, the cells were stained with 50 μl 3.3 μg/ml of Streptavidin-Cy3 (SA-Cy3).
(§3) “Tetramer-Streptavidin Complex”:1 μl of the 309 μM stock solution of the tetrameric peptide was preincubated with 300 μl of 3.3 μg/ml SA-Cy3 for 30 min at RT. 100 μl of LQI tetramer-SA-Cy3 mix was then used to stain 0.5×10^6 cells.
(§4) The cells were washed and analyzed by flow cytometry.

[6] = system: other WBC; experiment: as above; design: species or system mouse; details: WBCs from 4T1-tumor bearing mice, 30 min at 4° C.
Experimental: as §2, §3, §4

[7] = system: circulating neutrophils; experiment: Ex vivo binding to circulating neutrophils of healthy and tumor bearing mice; design: species or system mouse
Experimental: 0.5×10^6 purified HDNs were stained in 100 μl of preincubated 3.3 μg/ml 16-LQI-Cy3 solution for 30 min at 4° C. […] After staining, cells were washed and analyzed by flow cytometry.

[8] = system: murine neutrophils (HDNs from 4T1-tumor bearing mice); experiment: Titration of binding to purified HDNs, flow cytometry; design: species or system mouse
Experimental: Analysis was performed by flow cytometry.

[9] = system: murine neutrophils; experiment: Phage-display screening of a peptide library on murine neutrophils; type: binding, mouse; details: prevalence in the final eluate, average of 5 replicates
Experimental: A phage-display screening of a peptide library was conducted, in a similar way to a screen conducted by Mazzucchelli et al. (Blood, 1999, 93(5), 1738-1748). In the present screen, a library of pages displaying 10^12 different peptides on their VIII protein was used to identify peptides that bind to murine neutrophils. The peptides in the library were random sequences of 6-12 amino acids in linear or cyclic form (Ryvkin et al., 2018, Nucleic Acids Research, 2018, Vol. 46, No. 9 e52). The screen was conducted using murine Normal-Density Neutrophils (NDN) for positive selection, whereas monocytes and lymphocytes served for negative selection. Following 3 rounds of positive panning and 2 interlaced rounds of negative panning, the neutrophil affinity selected phages were eluted and sequenced (FIG. 11). The top-ranking enriched peptide sequences and their prevalence in the final eluate (average of 5 replicates) are presented in Table 3.

[10] = biological target: T2, murine CD177 (Mus musculus, UniProt Q8R2S8); experiment: Binding to HEK293T cells ectopically expressing CD177; details: control versus CD177-overexpressing cells
T2 construct: expressed in transfected cells; host or cells: HEK293T
T2 sequence (Q8R2S8 22-817): T1 sequence (Q8R2S8 22-817)

[11] = system: murine neutrophils (HDNs from 4T1 tumor bearing Balb/C mice); experiment: Competition assay of LQI phage binding with synthetic LQI peptide constructs; design: species or system mouse; details: peptide 20 min, then 10^10 LQI phages; M13-PE flow cytometry
Experimental: Several LQI monomeric peptide conjugates were synthesized by tagging the N-terminus of LQI peptide with Cy5, biotin or fluorescein (FIG. 1C). Competition assays were then performed in order to evaluate the binding of LQI and its conjugates to murine neutrophils. For the competition assays, 1×10^6 density-gradient purified HDNs from 4T1 tumor bearing Balb/C mice were incubated first with each of the synthetic peptides for 20 min, and later incubated with 10^10 phages presenting the LQI peptide on their surface. Phage binding was detected by flow cytometry with a M13-PE antibody.

[12] = system: monocytes or lymphocytes; experiment: Binding of peptide-presenting phage to WBC of 4T1 tumor bearing mice (anti-M13 PE, flow cytometry); design: species or system mouse; details: phage presenting the peptide
Experimental: (§5) FIGS. 1A-D: Validation of Phage Binding of Highest-Ranking Peptides Sequences Selected on Mouse Neutrophils. […] (SEQ ID NO: 9) peptide to neutrophils (Ly6G+CD11b+, red histogram) and other WBC (Ly6G−CD11b−, blue histogram) was evaluated using anti-M13 PE-labelled antibody and (1A) flow cytometry analysis or (1B) microscopy. (1C) Overview of LQI peptide constructs—the LQI peptide sequence on the phage is inserted within the protein VIII coat protein of the phage (LQI peptide in orange) and neighboring amino acid residues are depicted (recombinant LQI pVIII). An unlabeled, Cy5-labeled, biotin-labeled and the LQI peptide construct including neighboring amino acids from coat protein VIII as well as a glycine linker and fluorescein, were generated and tested for binding. (1D) Competition assay of LQI phage binding and LQI peptide constructs. Neutrophils were incubated with the LQI-presenting phage (black line) alone or with the LQI-presenting phage and different LQI peptide constructs at the same time (blue line). Phage binding to neutrophils was quantified using anti-M13-PE antibody (only M13-PE=dotted line).
(§6) The peptide having the best binding obtained in the screening was the peptide LQI, consisting of the amino acid sequence […] (SEQ ID NO: 9).

[13] = system: neutrophils (Ly6G+CD11b+); experiment: as above; design: species or system mouse; details: phage presenting the peptide
Experimental: as §5, §6

[14] = system: PMA stimulated ROS production in neutrophils; experiment: PMA induced ROS production after pretreatment with DPI or loaded nanoparticles; type: cell-based; details: pretreated 3 hrs with 10 ul NP or 1 uM free DPI, then 50 nM PMA
Experimental: PLGA NPs are known to gradually degrade within the cell, releasing any encapsulated payload. Therefore, whether neutrophil degranulation ROS production could be modulated by encapsulating small molecule inhibitors within neutrophil specific NPs (NSNPs) was tested. […] DPI was loaded in the LQI-coated nanoparticles using a single emulsion encapsulation process. Then, neutrophils were pretreated for 3 hrs with 10 ul empty NP (Empty NP), 10 ul DPI-loaded NP (NP+DPI) or 1 uM free DPI. After one wash, neutrophils were stimulated with 50 nM PMA to induce ROS production. Positive control for PMA induction were neutrophils pretreated with vehicle (empty NP). Negative control (Cont.) were untreated neutrophils.

[15] = system: 4T1 cancer cells co-cultured with HDNs
Experimental: In vitro luciferase assay to monitor the anti-tumor activity of isolated neutrophils (‘Killing Assay’): 5,000 luciferase-labeled 4T1 breast carcinoma cells were seeded in 100 μl OptiMem medium containing 2% heat-inactivated FCS in each well of a white 96-flat-bottom well plate. 24 hours after seeding the tumor cells, 1×10^5 HDNs purified from the circulation of 4T1-tumor-bearing mice were added in 50 μl OptiMem with 2% FCS. The co-culture was incubated overnight. Control wells were incubated in 50 μl medium without neutrophils. Multiple repeats (12 wells) were done of each experimental setting. The supernatant was aspirated and 50 μl of cell culture lysis buffer were added (Promega). The plate was incubated for 15 min on an orbital shaker and then read in the plate-reader. Well-wise 50 μl of in-house prepared luciferase assay solution was injected during the measurement, and chemiluminescence was read for 10 sec per well. % tumor lysis was calculated by the following formula: % tumor lysis=(1−[luminescence of samples with neutrophils]/[luminescence of samples in medium])×100%.
In more details, 5.000 luciferase-labeled 4T1 breast carcinoma cells were cultured for 18 hours. […] The next day, luciferin dependent chemiluminescence was measured and the percentage of killing was calculated compared to control wells that were not cultured with HDNs. […]

[16] = system: neutrophils (HDNs) from 4T1 tumor bearing Balb/C mice
Experimental: 800 μl of 2% FCS/RPMI medium were placed into the 24-well plate, then Millicell® cell culture inserts with a pore size of […] were placed into the wells and allowed to soak for 5 min. HDNs were suspended to a density of 250,000 cells/ml in 2% FCS/RPMI and 200 μl of the cell suspension were placed into the upper chamber of the transwell insert. Migration was stimulated by addition of […] CXCL2 to the bottom chamber of the wells (consider V=800 μl), and peptide was added to HDN in the upper chamber in two different concentrations (3.09 μM or 309 nM considering […]). Assay was stopped after 1.5 hr and inserts were removed with a forceps. Each condition was tested in triplicate. 5 pictures were taken per well at the same coordinates (middle, top, bottom, left, right). Cells per field of view were counted using ImageJ.
The purified HDNs were placed in the upper chamber of a transwell (pore size 5 μm) in 2% FCS/RPMI medium. The lower chamber contained either only 2% FCS/RPMI medium or the chemokine CXCL2 to induce neutrophil migration. […] The assay was stopped after 1.5 h incubation, five pictures of each well were taken, counted and averaged. The experiment was done in triplicates.

[17] = biological target: T1, CD177; details: neutrophil lysate 3 h, mass spectrometry
Experimental: After washing, the bound proteins were eluted by incubating the beads for 10 min at 95° C. in protein sample buffer containing beta-mercaptoethanol. The gel was stained using silver staining. Lanes of the eluates of peptide- and control-beads were cut out and analyzed by mass spectrometry.

[18] = system: tumor-associated neutrophils (TANs); details: TANs from 4T1 tumors, 30 min at 4° C.
Source text: After staining, cells were washed and analyzed by flow cytometry.

## 16-LQI: LQI tetramer-streptavidin (SA) complex, a 16-mer of the LQI-peptide [Peptide 16-LQI]
[1]
  uptake seen by confocal imaging: engulfed specifically by neutrophils
[2]
  binding to circulating CD177+ cells: all circulating CD177+ cells (neutrophils) bind
[3]
  percentage of doublets versus cells stained with only SA-Cy3: Differences were not detected
[4]
  clusters in which CD177 and 16-LQI signals overlap: > 90%
[5]
  binding of neutrophils: 100%
[6]
  binding to other WBC: ~10%
[7]; mice bearing 4T1 tumors
  specificity to circulating neutrophils (Ly6G+ cells): strong specificity
[7]; neutrophils isolated from healthy mice, ex vivo
  binding to circulating neutrophils: 87%
[8]
  affinity for neutrophils relative to LQI-tetramer alone: more than 75 times

## LTLVSERPMI
[9]
  Prevalence (%): 1.5%

## LQIQSWSSSP
[10]
  binding to HEK293T cells: binds only to HEK293T cells ectopically expressing the murine CD177
[11]
  competition with LQI phage binding to neutrophils: able to compete with the phage binding to neutrophils
[9]
  Prevalence (%): 28.4%
[12]
  binding of phage to monocytes or lymphocytes: no detectable binding
[13]
  binding of phage to neutrophils: 95%

## c1ccc2c(c1)[I+]c1ccccc1-2 [DPI, diphenyleneiodonium chloride]
[14]
  effect on PMA stimulated ROS production: efficiently blocked; also recorded: completely blocked ROS production

## LSIVSGSALNHL
[9]
  Prevalence (%): 2.9%

## (LQIQSWSSSP (SEQ ID NO: 9) Doa-Doa-C)4-(Mpa)-4-Lys2-Lys-beta-Ala-Lys(Biotin)-beta-Ala-OH [LQI tetramer]
[15]
  effect on the ability of HDNs to kill cancer cells: does not affect the ability of HDNs to kill cancer cells
[16]; 3.09 μM and 309 nM in upper chamber, CXCL2 in lower chamber, 1.5 h
  effect on neutrophil migration: no significant effect on neutrophil migration
[16]; migration towards media containing LQI-tetramer
  chemoattractant activity: does not itself act as a chemoattractant
[17]
  peptide/control ratio of CD177 in pulldown: 7.89
[5]
  binding of neutrophils: ~100%
[6]
  binding to other WBC: ~50%
[7]; summary FIG. 2H
  binding to the different types of neutrophils: very high efficiency
[8]; purified HDNs, flow cytometry
  pKd: 5.48
[18]
  binding efficiency to TANs: 98%

## TETSLRIVSTNP
[9]
  Prevalence (%): 4.1%

## STMTILGTGS
[9]
  Prevalence (%): 10.4%
